Here are results for eleven compounds from paper PMC4974614, “Human native kappa opioid receptor functions not predicted by recombinant receptors: Implications for drug design” (Scientific Reports, 2016).

Where “and” joins values, the source holds several entries; their conditions need not be identical. Identical values can stand only once. Counter-ions that a name gives are not always drawn. Like-named read-outs stand apart in the source and are kept apart here.

Test [1] concerns the target T1, human κ receptor (Homo sapiens, UniProt P41145). Description: cell-based. The following applies: for Emax: HEK293, read-out: BRET Emax (%). A general note: BRET reads energy transfer from a luciferase to a nearby fluorophore.
Test [2] has as its target T2, mouse κ receptor (Mus musculus, UniProt P33534). The experiment in a line: cell-based. Particulars: HEK293, read-out: BRET Emax (%).
Test [3] concerns the target T1, human κ receptor. Description: cell-based. The following applies: for Emax: HEK293, read-out: TR-FRET Emax (%). (In general: TR-FRET usually uses a lanthanide donor and a delayed reading to cut background.)
Test [4] addresses T2, mouse κ receptor. Description: cell-based. Particulars: HEK293, read-out: TR-FRET Emax (%).
Test [5] concerns the target T1, human κ receptor. The test is classed as cell-based.
Test [6] deals with T2, mouse κ receptor. Type of test: cell-based.
The next test concerns mouse isolated colon. The experiment in a line: EFS-evoked cholinergically-mediated contractions of mouse isolated colon. The test is classed as cell-based. The following applies: for Emax / EC50: Mus musculus; for Emax: read-out: Emax (%), inhibition of EFS-evoked after-contractions; for EC50: read-out: pEC50, inhibition of EFS-evoked after-contractions (converted).
The subject of another test is mouse proximal colon. Description: Carbachol-induced contractions of mouse proximal colon. The test is classed as cell-based. On the procedure:
Changes in muscle tension were recorded using isometric force transducers (AD Instruments, Chalgrove, UK) on a data acquisition system (Biopac Systems Inc., Goleta, CA, USA). The strips were given 1 g tension and allowed to recover for 30 min during which time the bath solutions were changed every 15 min; this initial tension was previously determined as the optimum required to maximally detect EFS-evoked responses in both regions (data not shown). Electrical Field Stimulation (EFS) was applied at 5 Hz using a maximally-effective voltage (80 V) and 0.5 ms bipolar pulse duration […], given for 30 s every 120 s, for at least 1 hour before drug addition. These parameters of EFS consistently evoked nerve-mediated responses with a good signal-to-noise ratio over spontaneous muscle activity. After obtaining consistent responses, drugs were applied non-cumulatively to separate tissues (20 min contact); changes in resting muscle tension and responses to EFS were measured. Finally, any effects of the drugs on carbachol-induced contractions were examined by first obtaining consistent responses to a submaximally-effective concentration of carbachol (1 μM; 27 ± 9% max, 5 min contact; n = 4). The compounds were then added 5 min before application of carbachol (1 μM, 5 min contact), followed by washing, and this process was repeated at least once more.

In test [7] the test system is human isolated colon. The experiment in a line: EFS-evoked cholinergically-mediated contractions of human isolated colon. The test is classed as cell-based. The following applies: for inhibition at 1 µM: read-out: % inhibition of contractions evoked during EFS; for effect alone on responses to EFS: phentolamine 1 μM and propranolol 1 μM together, descending colon.
Test [8] deals with human descending colon. Description: cells. Type of test: cell-based.
Test [9] concerns tetrodotoxin-sensitive Na+ channels. The following applies: read-out: EC50, block of tetrodotoxin-sensitive Na+ channels; cited from earlier work.
The next test relates to μ-opioid receptors. Particulars: cited from earlier work.
Test [10] relates to K+ channels in mouse epithelia. The following applies: read-out: IC50, block of K+ channels; cited from earlier work.
The conditions of test [11]: human, in vivo; cited from earlier work.
The conditions of test [12]: in vivo; cited from earlier work.
Test [13] has as its system human descending colon. Description: Carbachol-evoked contractions of human descending colon.
The test system of test [14] is human isolated colon. The following applies: cited from earlier work.
Test [15] has as its target Recombinant human receptor. The following applies: cited from earlier work.
Test [16] concerns the target Recombinant human receptor. Particulars: cited from earlier work. The source holds these as a separate data set.
In test [17] the test system is mouse κ receptors in COS-1 cells. The following applies: read-out: IC50, radioligand binding; cited from earlier work.
In another test the test system is κ receptor. Particulars: cited from earlier work.

T2 sequence (P33534 whole entry): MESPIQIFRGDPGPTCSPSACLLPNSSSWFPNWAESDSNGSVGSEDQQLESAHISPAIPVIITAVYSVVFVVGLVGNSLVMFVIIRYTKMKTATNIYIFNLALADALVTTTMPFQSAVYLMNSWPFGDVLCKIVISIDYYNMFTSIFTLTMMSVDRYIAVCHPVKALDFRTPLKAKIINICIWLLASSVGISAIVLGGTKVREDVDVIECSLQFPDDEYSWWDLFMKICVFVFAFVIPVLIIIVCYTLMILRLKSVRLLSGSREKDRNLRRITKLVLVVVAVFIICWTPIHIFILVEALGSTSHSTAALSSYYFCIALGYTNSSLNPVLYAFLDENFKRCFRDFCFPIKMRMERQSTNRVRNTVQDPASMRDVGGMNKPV
T1 sequence (P41145 whole entry): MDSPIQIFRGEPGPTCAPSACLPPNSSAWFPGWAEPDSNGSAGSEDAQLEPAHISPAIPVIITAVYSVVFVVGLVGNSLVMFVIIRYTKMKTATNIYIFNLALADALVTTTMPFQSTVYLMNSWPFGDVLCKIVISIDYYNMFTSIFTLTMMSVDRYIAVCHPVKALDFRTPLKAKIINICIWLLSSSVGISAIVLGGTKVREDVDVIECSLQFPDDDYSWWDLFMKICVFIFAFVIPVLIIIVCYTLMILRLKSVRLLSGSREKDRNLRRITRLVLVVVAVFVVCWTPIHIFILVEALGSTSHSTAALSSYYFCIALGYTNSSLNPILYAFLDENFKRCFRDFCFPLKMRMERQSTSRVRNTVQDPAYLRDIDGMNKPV

On to `CN(C(=O)C(c1ccccc1)c1ccccc1)[C@H](CN1CC[C@H](O)C1)c1ccccc1` [Asimadoline], for which the EC50 on human κ receptor [1] (BRET pEC50) is 0.631 nM; at human κ receptor [3] it was 39.8 nM; in the test on mouse isolated colon it was 7.94 nM; in [9] it was 8.4 µM. Also, the Emax on human κ receptor [1] turned out to be 98 ± 5%; on mouse κ receptor [2], 99 ± 4%; on human κ receptor [3], 97 ± 2%; on mouse κ receptor [4] it was 96 ± 3%; in the test on mouse isolated colon it was 52 ± 7%. Moreover, the values for the BIAS on human κ receptor [5] and on mouse κ receptor [6] were 0.60 and 0.65, respectively. In addition, the “reduction of contractions of the distal colon” value with mouse isolated colon was 59 ± 13%. Moreover, the “time taken to achieve maximum activity” value in the test on mouse isolated colon is 17 ± 3 min. The “effect on contractions induced by carbachol 1 μM” value in the test on mouse proximal colon was 5 ± 7. Further, in the test on human isolated colon [7], the “Time to max effect” value came out at 40 ± 4 min. Further, in the test on human isolated colon [7], the “effect on baseline muscle tension” value was “Neither asimadoline nor ICI204448 changed baseline muscle tension”. Moreover, the “time to maximum inhibition” value in the test with human isolated colon [7] is recorded as 30 ± 5 min. Further, the inhibition at 1 µM with human isolated colon [7] (Homo sapiens) is -29 ± 4%. In addition, the “maximum inhibition of the response to ICI204448 60 nM” value in the test with human descending colon [8] is reported as 19 ± 7%. For the same compound, the IC50 in the test on human descending colon [8] (Homo sapiens, read-out: pIC50, reduction of the response to ICI204448 60 nM (converted)) was 1.58 nM; in test [10], 23.7 µM. In addition, the “concentration activating μ-opioid receptors” value with μ-opioid receptors was 3 µM. In addition, the “effect on colonic transit or postprandial motility” value in [11] is recorded as “not to affect colonic transit or postprandial motility”. Further, in test [12], the “effect on sensation or pain caused by colonic distension” value is given as “reduced the sensation or pain caused by colonic distension”. Further, the “effect on contractions evoked by carbachol 1 μM” value in the test on human descending colon [13] is −10 ± 9%.
As to `Oc1ccc2c3c1O[C@H]1c4[nH]c5c(c4C[C@@]4(O)[C@@H](C2)N(CC2CC2)CC[C@]314)C[C@@]1(O)[C@H]2Cc3ccc(O)c4c3[C@@]1(CCN2CC1CC1)[C@H]5O4` [nor-binaltorphamine], in the test with mouse isolated colon, the “effect by itself on the response to EFS” value was “did not by itself change the response to EFS”; the “effect on inhibition by ICI204448 and asimadoline” value is listed as “antagonised”. In addition, in the test on human isolated colon [7], the “effect by itself on contractions to EFS” value is reported as “by itself did not affect contractions to EFS”, the “intercept of Schild analysis” value is −9.7 and the “slope of Schild analysis” value is on record as 0.53 ± 0.11.
For the compound `CN1[C@@H]2CC[C@H]1C[C@@H](OC(=O)C(CO)c1ccccc1)C2` (stereo partly drawn) [atropine], in the test with mouse isolated colon, the “increase of EFS-evoked relaxations” value worked out at 61 ± 13% and the reduction of after-contractions was 81 ± 5%. In addition, the “effect on contractions during EFS” value with human isolated colon [7] is on record as “prevented”. For the same compound, the attenuation of after-contractions with human isolated colon [14] is recorded as 56 ± 12%.
Turning to `Cc1ccc(N(CC2=NCCN2)c2cccc(O)c2)cc1` [phentolamine], the “effect alone on responses to EFS” value with human isolated colon [7] is 2 ± 3 % change from baseline EFS.
On to `C[N+](C)(C)CCOC(N)=O` [carbachol], for which the “contraction as % max” value with mouse proximal colon (1 μM, 5 min contact) was 27 ± 9 % max. The “contraction as % of maximum contraction to carbachol” value with human descending colon [13] (1 μM, 5 min contact) is given as ~ 50%.
Dynorphin 1-13: in the test on human isolated colon [7], the “% inhibition of contractions evoked during EFS” value is -30% and -35%; the “Time to max effect” value was 17 min and 11 min. The “G protein pEC50” value in [15] is reported as 8.68 ± 0.07. Also, the “Arrestin pEC50” value in test [16] is recorded as 7.01 ± 0.07.
`COC(=O)[C@@H](N)CCCNC(N)=N[N+](=O)[O-]` [L-NAME, Nω-nitro-L-arginine methyl ester hydrochloride]: the “effect on EFS-evoked relaxations” value with mouse isolated colon (300 μM, proximal and distal colon) is listed as “abolished”. For the same compound, in the test with human isolated colon [7] (300 μM, ascending and descending colon), the “effect on relaxations during EFS” value is reported as “prevented”.
Consider `CN(C(=O)Cc1ccc(Cl)c(Cl)c1)C(CN1CCCC1)c1cccc(OCC(=O)O)c1` (stereo not drawn) [ICI204448], for which, on human κ receptor [1], the Emax came to 100 ± 3%. In addition, at mouse κ receptor [2], the Emax was 90 ± 4%. In addition, on human κ receptor [3], the maximum response (Emax) was found to be 98 ± 2%. Besides, the Emax on mouse κ receptor [4] is 92 ± 4%. In the test with mouse isolated colon, the “Emax (%), inhibition of EFS-evoked after-contractions” value was found to be 57 ± 7%; the “reduction of contractions of the distal colon” value was found to be 70 ± 5%; the “time taken to achieve maximum activity” value was 7 ± 2 min; the Emax was determined as 49 ± 8%. In the test on mouse isolated colon, the EC50 is 3.16 nM. Besides, the “effect on contractions induced by carbachol 1 μM” value in the test with mouse proximal colon (1 μM, proximal colon) is 0 ± 5 % initial carbachol response. For the same compound, in the test on human isolated colon [7], the “Time to max effect” value stood at 13 ± 3 min; the “effect on baseline muscle tension” value is recorded as “Neither asimadoline nor ICI204448 changed baseline muscle tension”; the “effect on relaxations evoked by EFS” value was 1 ± 7 % change from baseline EFS; the “pEC50, inhibition of contractions during EFS” value turned out to be 8.0 ± 0.4. Besides, the “time to maximum inhibition” value in the test with human isolated colon [7] is 7 ± 1 min. In addition, the inhibition at 1 µM in the test on human isolated colon [7] (Homo sapiens) is -57 ± 10%. The inhibition at 0.1 µM with human isolated colon [7] (Homo sapiens, read-out: inhibition of EFS-evoked contractions) stood at 130 ± 29%. Besides, in test [17], the IC50 is 6.6 nM. Further, the “G protein pEC50” value in [15] was 8.38 ± 0.09. In test [16], the “Arrestin pEC50” value was 8.48 ± 0.06 and the “biased activity towards the human κ receptor arrestin pathway” value is recorded as “only weak propensity for biased activity”. In addition, the “effect on contractions evoked by carbachol 1 μM” value in the test on human descending colon [13] (100 nM, descending colon, no EFS) is reported as −9 ± 2%.
With `CC(C)NCC(O)COc1cccc2ccccc12` (stereo not drawn) [propranolol], the “effect alone on responses to EFS” value in the test on human isolated colon [7] was 2 ± 3 % change from baseline EFS.
`CC[C@](COCc1cc(OC)c(OC)c(OC)c1)(c1ccccc1)N(C)C` [fedotozine]: the “selectivity for the κ receptor over other opioid receptors” value in the test with κ receptor is given as ~2 fold.
With `NC1=N[C@H](O)[C@H]2[C@H]3O[C@]4(O)O[C@@H]([C@@H](O)[C@@]2(N1)[C@@H]4O)[C@]3(O)CO` [tetrodotoxin], in the test with mouse isolated colon, the “effect on EFS-evoked responses (relaxation, after-contraction)” value is on record as “prevented”. Also, the “effect on responses evoked by EFS” value in the test on human isolated colon [7] is on record as “prevented”.

In general, Emax refers to the greatest response seen or fitted, relative to the assay's reference. As usually defined, the inhibition is the change of the read-out against control, counted positive when it falls.
